The NIST ThermoML archive (doi:10.1016/j.tca.2015.12.011)
± gives the expanded uncertainty stated by the source.

Assay: excess molar enthalpy (molar enthalpy of mixing); xn = mol fraction of the nth substance listed
Conditions: 100 kPa, Liquid, Calvet calorimetry

[Li] [lithium] + [Ga]
Conditions	excess molar enthalpy [kcal/mol]
891 K, x1 = 0.7508	-4.11 ± 0.191
993 K, x1 = 0.1014	-1.39 ± 0.0956
993 K, x1 = 0.2531	-3.23 ± 0.0956
1018 K, x1 = 0.7505	-3.9 ± 0.143
1044 K, x1 = 0.4035	-4.64 ± 0.0717
1044 K, x1 = 0.5023	-5.04 ± 0.12
1044 K, x1 = 0.6005	-5.04 ± 0.167
